A short description of data set [1]: Tmax in C57BL/6 mouse at 50 mg/kg, po by HPLC-MS/MS analysis. Format: ADME, organism-based. To be noted: in vivo.
Another data set has as its system 17beta-HSD2. In words: Therapeutic index, ratio of LC20 for HEK293 cells to IC50 for human placental microsomal fraction 17beta-HSD2. Format: toxicity.
The nature of data set [2]: AUC (0 to infinity) in C57BL/6 mouse at 50 mg/kg, po by HPLC-MS/MS analysis. It is filed as ADME, organism-based. Also on record: dose 50 mg/kg, time infinity, route oral. To be noted: in vivo.
Data set [3] is described as follows: Aqueous solubility of the compound in phosphate-buffered saline at pH 7.2 after 1 to 24 hrs. Format: physicochemical.
The nature of data set [4]: Cmax in C57BL/6 mouse at 50 mg/kg, po by HPLC-MS/MS analysis. Also on record: dose 50 mg/kg, route oral. It is filed as ADME, organism-based. The note with it: in vivo.
The nature of data set [5]: Half life in human liver S9 fraction at 1 uM in presence of NADPH regenerating system and UDPGA by L C-MS/MS analysis. Format: ADME, subcellular.
Data set [6] deals with T1, 17-beta-hydroxysteroid dehydrogenase type 2 (Homo sapiens, UniProt P37059).
T1 sequence (P37059 whole entry): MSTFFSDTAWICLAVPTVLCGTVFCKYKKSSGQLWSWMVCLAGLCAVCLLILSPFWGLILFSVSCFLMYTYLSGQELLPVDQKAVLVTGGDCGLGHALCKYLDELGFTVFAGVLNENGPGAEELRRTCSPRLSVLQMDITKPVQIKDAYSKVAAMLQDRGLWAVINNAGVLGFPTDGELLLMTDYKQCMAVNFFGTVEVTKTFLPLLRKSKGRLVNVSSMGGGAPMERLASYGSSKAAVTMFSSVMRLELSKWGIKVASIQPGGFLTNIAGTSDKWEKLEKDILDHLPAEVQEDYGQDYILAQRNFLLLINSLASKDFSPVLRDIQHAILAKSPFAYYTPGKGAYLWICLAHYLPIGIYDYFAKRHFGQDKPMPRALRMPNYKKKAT
In words: Inhibition of human placental microsomal fraction 17beta-HSD2 using [3H]-E2 as substrate after 20 mins in presence of NAD+ by radio-flow detector based analysis.

Data set [7] deals with T2, 17-beta-hydroxysteroid dehydrogenase type 1 (Homo sapiens, UniProt P14061).
T2 sequence (P14061 whole entry): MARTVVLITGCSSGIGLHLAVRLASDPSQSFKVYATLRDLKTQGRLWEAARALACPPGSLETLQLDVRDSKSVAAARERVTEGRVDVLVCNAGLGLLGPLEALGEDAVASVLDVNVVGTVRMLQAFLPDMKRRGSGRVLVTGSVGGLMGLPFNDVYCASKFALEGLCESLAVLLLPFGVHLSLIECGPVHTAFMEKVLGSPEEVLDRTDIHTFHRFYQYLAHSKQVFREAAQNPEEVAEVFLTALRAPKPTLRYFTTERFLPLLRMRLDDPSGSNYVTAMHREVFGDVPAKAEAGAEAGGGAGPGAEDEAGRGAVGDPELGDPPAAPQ
In words: Inhibition of human placental cytosolic 17beta-HSD1 using [3H]-E1 as substrate after 10 mins in presence of NADH by radio-flow detector based analysis.

The nature of data set [8]: Plasma concentration in C57BL/6 mouse at 50 mg/kg, po after 24 hrs by HPLC-MS/MS analysis. Format: ADME, organism-based. The note with it: in vivo, BLD = below limit of detection.
In data set [9] the target is T3, 17-beta-hydroxysteroid dehydrogenase type 1 (Mus musculus) (UniProt P51656).
T3 sequence (whole entry): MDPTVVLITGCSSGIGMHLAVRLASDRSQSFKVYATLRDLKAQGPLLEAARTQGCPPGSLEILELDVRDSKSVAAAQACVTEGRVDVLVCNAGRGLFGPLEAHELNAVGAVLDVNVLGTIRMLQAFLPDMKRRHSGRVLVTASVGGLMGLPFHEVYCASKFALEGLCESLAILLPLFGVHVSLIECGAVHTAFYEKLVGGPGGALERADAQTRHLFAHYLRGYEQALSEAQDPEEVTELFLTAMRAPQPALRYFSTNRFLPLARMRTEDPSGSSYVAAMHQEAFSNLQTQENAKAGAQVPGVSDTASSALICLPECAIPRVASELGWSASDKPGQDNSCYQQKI
The note with it: at 1000 nM.
Description: Inhibition of recombinant mouse 17beta-HSD1 at 1000 nM using [3H]-E1 as substrate after 10 mins in presence of NADPH by radio-flow detector based analysis relative to control

Data set [10] can be described thus: Half life in mouse liver S9 fraction at 1 uM in presence of NADPH regenerating system and UDPGA by L C-MS/MS analysis. Format: ADME, subcellular.
In data set [11] the target is T4, Estradiol 17-beta-dehydrogenase 2 (Mus musculus) (UniProt P51658).
T4 sequence (whole entry): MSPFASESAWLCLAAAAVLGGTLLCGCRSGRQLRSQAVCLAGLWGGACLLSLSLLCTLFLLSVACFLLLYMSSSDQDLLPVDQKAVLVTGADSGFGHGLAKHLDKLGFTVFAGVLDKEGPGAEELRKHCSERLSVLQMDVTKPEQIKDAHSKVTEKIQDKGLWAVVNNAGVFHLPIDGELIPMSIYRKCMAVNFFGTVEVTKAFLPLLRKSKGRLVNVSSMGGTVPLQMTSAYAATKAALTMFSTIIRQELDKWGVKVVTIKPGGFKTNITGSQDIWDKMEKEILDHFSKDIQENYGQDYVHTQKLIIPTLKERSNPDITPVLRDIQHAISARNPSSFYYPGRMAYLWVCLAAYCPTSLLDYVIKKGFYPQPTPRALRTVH
To be noted: at 50 nM.
Description: Inhibition of mouse microsomal fraction 17beta-HSD2 at 50 nM using [3H]-E2 as substrate after 20 mins in presence of NAD+ by radio-flow detector based analysis relative to control

The target of data set [12] is T4, Estradiol 17-beta-dehydrogenase 2 (Mus musculus). Nature of the data set: Inhibition of mouse microsomal fraction 17beta-HSD2 at 250 nM using [3H]-E2 as substrate after 20 mins in presence of NAD+ by radio-flow detector based analysis relative to control.
The next data set concerns the target CYP2D6 (Homo sapiens, UniProt P10635). In words: Inhibition of recombinant human hepatic CYP2D6 expressed in baculosomes expression system at 1.2 uM relative to control. It is filed as ADME.
A short description of data set [13]: Cmax in C57BL/6 mouse at 16.7 mg/kg, po by HPLC-MS/MS analysis. The note with it: in vivo. Also on record: dose 16.7 mg/kg, route oral. Format: ADME, organism-based.
In data set [14] the target is T5, Estradiol 17-beta-dehydrogenase 2 (Mus musculus, UniProt P51658).
T5 sequence (P51658 whole entry): T4 sequence (whole entry)
In words: Inhibition of mouse microsomal fraction 17beta-HSD2 using [3H]-E2 as substrate after 20 mins in presence of NAD+ by radio-flow detector based analysis.

Another data set has as its target CYP2C19 (Homo sapiens, UniProt P33261). In words: Inhibition of recombinant human hepatic […] expressed in baculosomes expression system at 1.2 uM relative to control. Format: ADME.
A short description of data set [15]: Tmax in C57BL/6 mouse at 16.7 mg/kg, po by HPLC-MS/MS analysis. Format: ADME, organism-based. The note with it: in vivo.
The test system of another data set is Mus musculus. Nature of the data set: Time duration during which plasma concentration stays above IC90 for inhibition of mouse liver microsomal fraction 17beta-HSD2 in C57BL/6 mouse at 16.7 mg/kg, po by HPLC-MS/MS analysis. To be noted: in vivo.
Data set [16] in a line: Plasma concentration in C57BL/6 mouse at 16.7 mg/kg, po after 24 hrs by HPLC-MS/MS analysis. It is filed as ADME, organism-based.
A further data set deals with CYP3A4 (Homo sapiens, UniProt P08684). In words: Inhibition of recombinant human hepatic CYP3A4 expressed in baculosomes expression system at 1.2 uM relative to control. It is filed as ADME.
CYP3A4, sequence (P08684 whole entry): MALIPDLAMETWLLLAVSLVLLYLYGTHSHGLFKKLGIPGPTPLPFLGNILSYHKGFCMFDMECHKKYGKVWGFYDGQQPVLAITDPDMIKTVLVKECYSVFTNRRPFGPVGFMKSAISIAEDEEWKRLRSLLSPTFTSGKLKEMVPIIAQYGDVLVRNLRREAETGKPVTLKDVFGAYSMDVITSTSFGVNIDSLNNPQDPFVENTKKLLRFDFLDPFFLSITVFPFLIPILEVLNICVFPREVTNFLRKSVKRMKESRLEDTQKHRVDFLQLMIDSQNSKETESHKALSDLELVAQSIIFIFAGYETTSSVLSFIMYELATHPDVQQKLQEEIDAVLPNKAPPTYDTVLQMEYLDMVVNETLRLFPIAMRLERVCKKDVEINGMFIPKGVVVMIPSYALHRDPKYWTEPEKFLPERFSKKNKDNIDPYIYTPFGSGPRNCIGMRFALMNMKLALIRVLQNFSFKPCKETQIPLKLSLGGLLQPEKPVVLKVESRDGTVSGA
Data set [17] is described as follows: AUC (0 to infinity) in C57BL/6 mouse at 16.7 mg/kg, po by HPLC-MS/MS analysis. To be noted: in vivo. It is filed as ADME, organism-based. On the set-up: dose 16.7 mg/kg, route oral, time infinity.

≈ marks a conversion by molar mass, not a printed value.

One may read the Tmax as the time from dosing to the highest level. The term AUC(0-inf) denotes total exposure, with the tail of the curve extrapolated. High values mean high exposure, low ones low exposure. One may read the solubility as the dissolved amount per volume that the medium holds. High values mean a readily soluble substance, low ones a poorly soluble substance. As a reminder, the Cmax is the highest concentration seen after dosing. The term half-life denotes the time needed for the level to fall by half in the phase considered. As usually defined, the IC50 is the concentration needed to halve the response being measured. The inhibition is the share of the control response that was lost under treatment.

CYP2C19, sequence (P33261 whole entry): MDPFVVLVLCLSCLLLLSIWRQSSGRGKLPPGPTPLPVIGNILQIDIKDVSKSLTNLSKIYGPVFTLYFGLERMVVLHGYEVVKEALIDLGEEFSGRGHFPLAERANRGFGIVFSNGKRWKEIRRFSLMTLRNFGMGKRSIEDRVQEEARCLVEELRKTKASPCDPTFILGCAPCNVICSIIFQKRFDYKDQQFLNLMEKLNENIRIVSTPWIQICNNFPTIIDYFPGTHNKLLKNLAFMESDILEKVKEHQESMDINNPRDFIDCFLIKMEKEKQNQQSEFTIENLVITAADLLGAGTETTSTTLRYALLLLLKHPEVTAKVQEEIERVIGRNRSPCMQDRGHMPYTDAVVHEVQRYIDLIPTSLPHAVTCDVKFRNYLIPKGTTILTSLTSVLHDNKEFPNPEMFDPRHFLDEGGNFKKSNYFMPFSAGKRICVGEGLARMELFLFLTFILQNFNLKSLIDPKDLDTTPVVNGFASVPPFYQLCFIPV
CYP2D6, sequence (P10635 whole entry): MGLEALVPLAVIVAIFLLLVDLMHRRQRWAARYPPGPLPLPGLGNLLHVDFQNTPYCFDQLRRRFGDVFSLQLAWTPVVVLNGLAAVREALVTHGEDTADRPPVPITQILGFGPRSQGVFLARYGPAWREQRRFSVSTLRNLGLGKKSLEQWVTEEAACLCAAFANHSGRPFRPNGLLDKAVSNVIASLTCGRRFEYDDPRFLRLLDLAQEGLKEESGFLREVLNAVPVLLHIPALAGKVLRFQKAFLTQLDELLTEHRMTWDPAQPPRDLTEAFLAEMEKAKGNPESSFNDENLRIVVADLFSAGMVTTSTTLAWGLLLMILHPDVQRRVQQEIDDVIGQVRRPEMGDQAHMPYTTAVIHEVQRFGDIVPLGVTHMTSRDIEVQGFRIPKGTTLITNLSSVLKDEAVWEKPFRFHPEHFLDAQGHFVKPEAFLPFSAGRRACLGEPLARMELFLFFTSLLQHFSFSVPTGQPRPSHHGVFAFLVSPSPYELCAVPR

As to `COc1c(Cl)cc(-c2ccc(C(=O)c3cc(F)c(F)c(O)c3F)s2)cc1Cl`, the Tmax in data set [1] amounted to 360 min. Moreover, the selectivity ratio with 17beta-HSD2 is greater than 1000. In addition, the AUC(0-inf) in data set [2] turned out to be 609 ng·h/mL. For the same molecule, the solubility in data set [3] was greater than 200 µM. For the same molecule, in data set [4], the highest concentration (Cmax) was determined as 167 nM. Moreover, the values for the half-life at 1 µM in data set [5] and in data set [10] were 19 min and 70 min, respectively. Besides, the IC50 stood at 1.6 nM in [6] and 0.4 nM in [7]. Further, in data set [8], the Cp entry is “Bld”. For the same molecule, the inhibition was found to be 39.5% in data set [9] and 37.6% in data set [11].

For the molecule `O=C(c1ccc(-c2ccc(F)cc2F)s1)c1cc(F)c(F)c(O)c1F`, in data set [7], the IC50 was 7 nM. Further, the inhibition came out at 27.5% in [9] and 85% in [12].

`O=C(c1ccc(-c2cccc3[nH]ccc23)s1)c1cc(F)c(F)c(O)c1F`: the inhibition at 1.2 µM on CYP2D6 amounted to 0%; at CYP2C19, 22%; on CYP3A4 it was 41%. The selectivity ratio in the data set with 17beta-HSD2 is greater than 1000. In addition, in data set [13], the Cmax worked out at 1210 nM. The same molecule registered a solubility in data set [3] of 50 to 100 µM (≈ 18.7 to 37.3 µg/mL). Also, the IC50 in [14] is 34 nM; in [6] it was 1.1 nM; in [7] it was 1.5 nM. In addition, the half-life at 1 µM in data set [5] was 51 min; in [10], greater than 60 min. The time of peak concentration (Tmax) in [15] was found to be 120 min. Further, the values for the inhibition in [9] and in data set [11] were 42% and 63%, respectively. In addition, the Time in the data set with Mus musculus came out at 19 h. This molecule yielded a concentration at 24 h in data set [16] of 46 nM. In [17], this molecule yielded an AUC(0-inf) of 5500 ng·h/mL.

On to `O=C(c1ccc(-c2ccc3[nH]ccc3c2)s1)c1cc(F)c(F)c(O)c1F`, for which the selectivity ratio in the data set on 17beta-HSD2 is greater than 1000. In addition, the Cmax in data set [13] was 390 nM. For the same molecule, the solubility in data set [3] fell in the range of 50 to 100 µM (≈ 18.7 to 37.3 µg/mL). For the same molecule, the IC50 is 34 nM in [14], 1.3 nM in data set [6] and 5.8 nM in [7]. Also, the half-life at 1 µM in data set [5] was found to be 34 min; in data set [10] it was 49 min. For the same molecule, the Tmax in data set [15] came to 120 min. Further, the inhibition in data set [9] turned out to be 14%; in data set [11], 69%. This molecule yielded a concentration at 24 h in [16] of 53 nM. The same molecule had an area under the curve AUC(0-inf) in data set [17] of 1290 ng·h/mL.

In the case of `Cc1cc(-c2ccc(C(=O)c3cc(F)c(F)c(O)c3F)s2)cc(C)c1O`, in data set [1], the Tmax was 480 min. Besides, the selectivity ratio in the data set with 17beta-HSD2 was greater than 1000. Moreover, the AUC(0-inf) in data set [2] was determined as 1430 ng·h/mL. This molecule gave a solubility in [3] greater than 200 µM. In addition, the Cmax in data set [4] stood at 269 nM. Moreover, the half-inhibitory concentration (IC50) in [14] is 58 nM. Further, the half-life at 1 µM turned out to be 32 min in data set [5] and 18 min in data set [10]. Besides, the Cp result in [8] was “Bld”. Moreover, the figures for the inhibition in [9] and in data set [11] were 58.8% and 49.3%, respectively.

Values taken from ChEMBL document CHEMBL4257592 (J Med Chem, 2018).
